The results in this text go back to patent publication US11584916B2, “Method of making in vivo human small intestine organoids from pluripotent stem cells” (Children's Hospital Medical Center, priority 2014, dated 2023).

Assay [1] deals with HIO+NCC tissue. Format: cell-based, human.
Assay [2] concerns HIO+NCC tissues. The experiment in a line: Ex-vivo intestinal motility, organ bath, muscle strips of engrafted HIO+NCC. Format: cell-based, human.
Assay [3] relates to ENS neurons in HIOs+NCCs. The experiment in a line: Live imaging of Ca2+ flux (GCaMP6f) in HIOs+NCCs in vitro. Format: cell-based, human. Conditions: 30 mM; HIOs+GCaMP6 expressing NCCs. From the text:
The accessibility of in vitro grown HIOs allowed us to test the functionality of neurons using live imaging with the Ca2+ sensor GCaMP6f19. To do this, Applicant generated HIOs and incorporated into them NCCs that were derived from a PSC line containing GCaMP6 (FIG. 17A). Imaging of neural activity in HIOs grown for 8 weeks in vitro detected broad, spontaneous, and rapid calcium transients within neurons. When individual neurons were monitored there was an obvious periodicity of calcium efflux in the range of 3-4 seconds/neuron (FIGS. 17B and 17C).
On the technique in general: A change in cytosolic calcium serves as a functional read-out for many receptors and channels.

The target in assay [4] is T1, peptide transporter (PEPT1) (Homo sapiens, UniProt P46059).
T1 sequence (P46059 1-708): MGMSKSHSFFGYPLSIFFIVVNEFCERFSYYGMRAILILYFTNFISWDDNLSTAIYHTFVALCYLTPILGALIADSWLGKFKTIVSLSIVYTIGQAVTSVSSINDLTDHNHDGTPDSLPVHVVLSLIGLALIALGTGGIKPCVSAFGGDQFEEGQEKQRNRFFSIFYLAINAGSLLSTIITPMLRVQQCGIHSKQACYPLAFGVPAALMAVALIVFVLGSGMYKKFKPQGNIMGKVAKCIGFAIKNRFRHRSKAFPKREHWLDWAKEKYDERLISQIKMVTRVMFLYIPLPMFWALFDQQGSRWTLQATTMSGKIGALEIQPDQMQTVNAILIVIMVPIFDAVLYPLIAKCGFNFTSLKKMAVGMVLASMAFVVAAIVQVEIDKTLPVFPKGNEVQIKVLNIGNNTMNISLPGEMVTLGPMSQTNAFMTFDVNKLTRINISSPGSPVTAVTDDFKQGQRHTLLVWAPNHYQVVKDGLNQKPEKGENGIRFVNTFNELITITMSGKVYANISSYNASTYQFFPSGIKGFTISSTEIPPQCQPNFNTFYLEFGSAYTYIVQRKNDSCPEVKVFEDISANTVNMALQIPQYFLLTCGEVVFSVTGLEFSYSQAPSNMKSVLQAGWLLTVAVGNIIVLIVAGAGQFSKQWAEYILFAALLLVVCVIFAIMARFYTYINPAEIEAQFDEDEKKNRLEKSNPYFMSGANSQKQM
Conditions: in vivo.

In assay [5] the test system is vagal-level Hox genes HOXB3, HOXB5, and HOXB7. The experiment in a line: Posteriorization of human PSC-derived neurospheres/NCCs, Hox gene expression by qRT-PCR. Conditions: two days (48 hours) at the neurosphere stage; RA 2 μM. Format: cell-based. The protocol:
Cells were fed mTeSR1 media and routinely passaged using Dispase II (Gibco). NCCs and HIOs were generated and combined at an early stage of intestinal differentiation to generate HIOs containing ENS. Briefly, for NCC generation (FIG. 1), hPSCs were treated with collagenase IV (500 U/mL) in mTeSR1 for 60 min to detach colonies. Cells were washed to remove collagenase, then gently triturated and resuspended in neural induction media on non-TC treated petri dishes. Neural induction media was changed daily and retinoic acid (2 μM) was added on days 4 and 5 for posteriorization. Day 6 free-floating neurospheres were plated on fibronectin (3 μg/cm2) and fed neural induction media without RA for 4 days. Migrated cells were collected using a brief Accutase treatment (2-3 min) and passaged onto fibronectin or used immediately for combining with HIOs. NCCs were differentiated essentially as described for neuroglial 9 and mesenchymal lineages 36. […] Following the formation of gut tube spheroids, Applicant gently centrifuged spheroids +/−NCCs and embedded them in Matrigel. […]
Total RNA from cells and organoids was isolated using NucleoSpin RNA isolation Kit (Macherey-Nagel). […] Applicant performed qPCR using QuantiTect SYBR Green PCR Kit (Qiagen) on a BioRad CFX96 Real-Time PCR Detection System. […]
Background: In qPCR the cycle at which signal appears reflects the starting amount.

The subject of assay [6] is vagal-level Hox genes HoxB3 and HoxB7. As to the kind of experiment: Chick cranial NCC culture, Hox gene expression. It counts as cell-based. The conditions noted are these: 2 μM RA or 4 ng/mL FGF4 for 48 hours. On the procedure: Chicken eggs were purchased from Charles River and incubated at 39° C. until they reached the desired Hamburger and Hamilton stage. For chicken NCC culture, dorsal neural tubes from cranial or trunk region of HH8 embryos were dissected by Gastromaster and cultured on matrigel-coated tissue culture dish with NCC culture medium (BajPai R et al, 2010) for 24 hours. The neural ectoderm was scrapped off the plate by tungsten needle after NCCs migrated out from the neural tube explants. The NCCs remained on the plate were then treated with 4 ng/mL FGF4 or 2 μM Retinoic acid for 48 hours. For NCCs injection, GFP-labeled human PSC-derived NCCs were collected and injected intersomitically into HH10-12 chicken embryos. The embryos were harvested around HH38 for analysis.

For assay [7], the system named is human pluripotent stem cells. The experiment in a line: Directed differentiation of human pluripotent stem cells into definitive endoderm. Format: cell-based. Conditions: 100 ng ml-1 Activin A for 3 d. On the procedure: Human intestinal organoids were generated and maintained as previously described (Spence et al, Nature 2011 and McCracken et al. Nat. Protoc. 2011). Human embryonic stem cells and induced pluripotent stem cells were grown in feeder-free conditions in six-well Nunclon surface plates (Nunc) coated with Matrigel (BD Biosciences) and maintained in mTESR1 media (Stem Cell Technologies). For induction of definitive endoderm (DE), human ES or iPS cells were passaged with Dispase or Accutase (Invitrogen) and plated at a density of 100,000 cells per well in a Matrigel-coated, Nunclon surface 24-well plate. For Accutase split cells, 10 μM Y27632 compound (Sigma) was added to the media for the first day. Cells were allowed to grow until they reached 80-95% confluence. Cells were then treated with 100 ng ml-1 of Activin A for 3 d as previously described (D'Amour et al. Nat. Biotechnol. 2005). DE was then treated with hindgut induction medium (RPMI 1640, 2 mM L-glutamine, 2% decomplemented FBS, penicillin-streptomycin and 100 ng ml-1 Activin A) for 4 d with 500 ng mL-1 FGF4 (R&D) and 3 μM Chiron 99021 (Tocris) to induce formation of mid-hindgut spheroids. […]

“Also recorded” adds a separate entry of the source.

Consider `NC1=N[C@H](O)[C@H]2[C@H]3O[C@]4(O)O[C@@H]([C@@H](O)[C@@]2(N1)[C@@H]4O)[C@]3(O)CO` [TTX, tetrodotoxin], for which the “effect on contractions/motility triggered by low voltage EFS” value in assay [1] was “completely inhibited and lost”. The “effect on muscle relaxation in response to DMPP and or veratridine” value in assay [2] is given as “inhibited the ability of the neurons to induce muscle relaxation”. On to `CN(C)c1ccc2nc3ccc(=[N+](C)C)cc-3sc2c1` [Methylene Blue], for which, in assay [2] (Methylene Blue 50 μM, no neuronal stimulation), the “effect on spontaneous phasic contractions (ICC activity)” value is listed as “abolished phasic contractions; also recorded: loss of contractile activity”. With `COC(=O)[C@@H](N)CCCNC(=N)N[N+](=O)[O-]` [L-NAME, NG-nitro-L-arginine methyl ester], in assay [2] (L-NAME applied 5 min before DMPP (10 μM) stimulation), the “effect on relaxation after DMPP stimulation” value is given as “significantly decreased the relaxation”. On to `[Cl-].[K+]` [KC1], for which, in assay [3], the neuronal calcium response entry is on record as “large wave of neuronal calcium efflux”. In the case of `C[C@H](CS)C(=O)N1CCC[C@H]1C(=O)O` [Captopril], the “fluorescence within the epithelium after injection of labeled peptide + competitive inhibitor” value in assay [4] is “little to no fluorescence was observed”.

B1: FGF4: growth factor tested as a different posterizing factor (protein, UniProt P08620 31-206, looked up)
Fibroblast growth factor 4: APTAPNGTLEAELERRWESLVALSLARLPVAAQPKEAAVQSGAGDYLLGIKRLRRLYCNVGIGFHLQALPDGRIGGAHADTRDSLLELSPVERGVVSIFGVASRFFVAMSSKGKLYGSPFFTDECTFKEILLPNNYNAYESYKYPGMFIALSKNGKTKKGNRVSPTMKVTHFLPRL
Regarding B1, the “expression of vagal-level Hox genes in human PSC-derived NCCs” value in assay [5] is “little effect”. In addition, in assay [6], the “Hox gene expression in chick cranial NCCs” value was “had no effect”.

B2: Activin A: growth factor used to induce definitive endoderm (protein, UniProt P08476 311-426, looked up)
Inhibin beta A chain: GLECDGKVNICCKKQFFVSFKDIGWNDWIIAPSGYHANYCEGECPSHIAGTSGSSLSFHSTVINHYRMRGHSPFANLKSCCVPTKLRPMSMLYYDDGQNIIKKDIQNMIVEECGCS
modifications: Inhibin beta A chain
notes: growth factor used to induce definitive endoderm
Turning to B2, the “differentiation into definitive endoderm (FOXA2 and SOX17)” value in assay [7] was “efficient differentiation into definitive endoderm”.
